# Entries after “also recorded” stand apart in the source; their conditions may differ. Structures can show the parent of a compound that is named as a salt.
# Legend:
# β1-Arg389 receptor = molecular target: T1, β1-Arg389 receptor (Homo sapiens, UniProt P08588, G389R); assay: norepinephrine-stimulated cAMP accumulation in stably transfected CHW cells (functional antagonism); type: cell-based
# T1 construct: expressed in transfected cells
# Procedure: (§1) Chinese hamster fibroblasts (CHW cells) were stably transfected with the human Arg389 and Gly389 cDNAs as previously described (Mason et al., 1999). Lines with equivalent levels of expression as determined by radioligand binding were studied to ascertain the antagonist effect of bucindolol on norepinephrine stimulated cAMP accumulation. Cells in monolayers were treated with 10 μM norepinephrine in the absence and presence of various concentrations of bucindolol for 20 min at 37° C. and [^3H]cAMP isolated by column chromatography (Salomon, 1991).
# (§2) Chinese hamster fibroblasts were stably transfected using constructs previously described so as to separately express the human β1-Arg389 or β1-Gly389 receptors. β1AR expression, and affinity for bucindolol, were determined by radioligand binding studies with ^125I-cyanopindolol (125I-CYP), using 1 μM propranolol to define nonspecific binding as described. Whole cell cAMP accumulation studies were carried out by the [^3H]-adenine method using two lines with equivalent expression levels of the two receptors as indicated. Attached cells were exposed to vehicle (basal), 10 μM norepinephrine or 10 uM norepinephrine with the indicated concentrations of bucindolol for 15 min at 37° C.
# β1-Gly389 receptor = molecular target: T2, β1-Gly389 receptor (Homo sapiens, UniProt P08588); assay: as above; type: cell-based
# T2 construct: expressed in transfected cells
# Procedure: as §1, §2
# [1] = BEST trial, peripheral venous norepinephrine and haemodynamic changes; type: in vivo, human
# Procedure: (§3) Because of an initial delay in setting up the procedures, collection of blood samples for norepinephrine in all randomized patients began 6 months after trial initiation.
# (§4) Peripheral venous NE samples were drawn at baseline, 3 and 12 months by inserting a 21 gauge butterfly needle into an arm vein and placing the subject in a quiet room in a supine position for 30 minutes. The initial 3 ml of blood was discarded, and then 5 ml of blood was withdrawn and immediately transferred to pre-chilled 5 ml tubes containing EDTA. Within 30 min plasma was separated and frozen at −70° C. Sites shipped samples on dry ice to a central laboratory (LabCorp, Raritan, N.J.) every 3 mo, where the samples were stored at −85° C. and assayed within 3 weeks. NE was measured by HPLC-electrochemical detection using the Bio-Rad HPLC method (Bio-Rad Laboratories Hercules, Calif.). Quality control included re-measuring all samples with initial values of <200 pg/ml or >2000 pg/ml, from the 2nd stored tube; and routinely (every 20 samples) measuring known amounts.
# (§5) Means and standard deviations (SD) for continuous data, and proportions or percentages for categorical data are presented. T-tests or Wilcoxon rank sum tests were used for continuous data, and chi-square or Fisher's exact test for categorical data. An alpha level of 0.05 (2 tailed, unadjusted) was used to indicate statistical significance.
# [2] = test system: systemic venous norepinephrine; assay: as above; type: in vivo, human; settings: for NE change @ 3 mos, mean ± SD: Bucindolol Inter subgroup (Δ NE −244.5, ≦ +145), hydrochloride
# Procedure: as §3, §4, §5
# [3] = test system: advanced heart failure patients; assay: proposed bucindolol vs metoprolol CR/XL trial (Study Design II); type: in vivo, human
# Excerpt: In Study Design II (FIG. 28) for an additional study design, patients with symptomatic and advanced heart failure (reinforced by the heart failure hospitalization history over the preceding year; therefore, patients who are Class II at the time of screening are allowed in the trial) and LVEFs≦0.35 (the general description of the BEST Trial population) are initially screened for the absence of the α2c 322-325 DEL polymorphism, in the carrier state (either heterozygous or homozygous). […]
# The primary endpoint of the trial is noninferiority against metoprolol CR/XL (TOPROL-XL), using the 95% upper confidence limit (UCL) of the time to mortality plus heart failure hospitalization endpoint hazard ratio that was measured in the MERIT-HF trial (Hjalmarson et al. 2000). […] The 95% upper confidence limit for the hazard ratio (UCL) for bucindolol:metoprolol CR/XL (“noninferiority margin”) has been determined from the formula (Hasselblad et al., 2001) {(UCL bucindolol:metoprolol CR/XL)*(UCL metoprolol CR/XL:placebo)≦1.0}; using the MERIT-HF entire cohort UCL of 0.80 for metoprolol:placebo yields x*0.80≦1.0, or a noninferiority margin x≦1.25. […]
# [4] = bucindolol alone up to 10 μM, hydrochloride
# T2 sequence (P08588 whole entry): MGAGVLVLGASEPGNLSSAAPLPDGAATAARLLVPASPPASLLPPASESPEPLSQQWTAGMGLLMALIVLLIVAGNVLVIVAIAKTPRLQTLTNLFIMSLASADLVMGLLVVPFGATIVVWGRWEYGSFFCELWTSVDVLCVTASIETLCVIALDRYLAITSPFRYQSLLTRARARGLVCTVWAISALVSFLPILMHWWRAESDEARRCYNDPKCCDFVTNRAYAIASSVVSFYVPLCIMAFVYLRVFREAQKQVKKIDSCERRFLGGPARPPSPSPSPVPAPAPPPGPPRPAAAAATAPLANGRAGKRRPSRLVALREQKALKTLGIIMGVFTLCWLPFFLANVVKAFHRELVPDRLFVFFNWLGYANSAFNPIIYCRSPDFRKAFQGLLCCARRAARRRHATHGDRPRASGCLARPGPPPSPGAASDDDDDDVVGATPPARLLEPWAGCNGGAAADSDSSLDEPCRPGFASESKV
# T1 sequence (P08588 whole entry G389R): as the sequence (P08588 whole entry) above, with G389R counted along it
structure (smiles),measurement,setting,value
"CC(C)(Cc1c[nH]c2ccccc12)NCC(O)COc1ccccc1C#N (stereo not shown) [bucindolol, (2-{2-hydroxy-3{{2-(3-indolyl)-1,1-dimethylethyl}amino}propoxy}-benzonitrile hydrochloride)]",inhibition at 0.1 µM,"β1-Arg389 receptor; 0.1 μM bucindolol, read-out: inhibition of the Arg389 cAMP response",~80%
same,maximal decrease of cAMP,"β1-Arg389 receptor; 10 μM norepinephrine + bucindolol, Arg389 cells, N=4",435 ± 80 fmol/mL
same,stimulation of cAMP by bucindolol alone (intrinsic sympathomimetic activity),β1-Arg389 receptor; [4],no stimulation of cAMP; also recorded: no evidence for intrinsic sympathomimetic activity
same,maximal decrease of cAMP,"β1-Gly389 receptor; 10 μM norepinephrine + bucindolol, Gly389 cells, N=4",115 ± 23 fmol/mL
same,stimulation of cAMP by bucindolol alone (intrinsic sympathomimetic activity),β1-Gly389 receptor; [4],no stimulation of cAMP; also recorded: no evidence for intrinsic sympathomimetic activity
same,Change in LVEF @ 12 mos,[1]; Bucindolol Incr subgroup,7.1 ± 8.8 EFU
same,Change in LVEF @ 12 mos,[1]; Bucindolol Inter subgroup,7.3 ± 10.4 EFU
same,Change in LVEF @ 12 mos,[1]; Bucindolol Redxn subgroup,8.8 ± 9.2 EFU
same,decrease in norepinephrine relative to changes in the placebo group,[2]; 3 months,19%
same,decrease in norepinephrine relative to changes in the placebo group,[2]; 12 months,13%
same,average decrease in norepinephrine at 3 months,[2]; 153 bucindolol subjects at higher mortality risk with norepinephrine reduction,529 pg/mL
same,Change in SBP @ 12 mos,[2]; Bucindolol Incr subgroup,−0.9 ± 16.8 mm Hg
same,HR (heart rate) change @ 12 mos,[2]; Bucindolol Incr subgroup,−8.1 ± 14.6 BPM
same,Change in LVEF @ 3 mos,[2]; Bucindolol Inter subgroup,5.7 ± 7.9 EFU
same,Change in SBP @ 3 mos,[2]; Bucindolol Inter subgroup,−0.5 ± 15.7 mm Hg
same,Change in SBP @ 12 mos,[2]; Bucindolol Inter subgroup,0.7 ± 18.0 mm Hg
same,HR (heart rate) change @ 3 mos,[2]; Bucindolol Inter subgroup,−9.7 ± 12.4 BPM
same,HR (heart rate) change @ 12 mos,[2]; Bucindolol Inter subgroup,−7.9 ± 13.5 BPM
same,"NE change @ 3 mos, mean ± SD",[2]; n = 551,-44 pg/mL
same,"NE change @ 3 mos, mean ± SD","[2]; n = 551, listed as Bucindolol",-44 ± 103 pg/mL
same,"NE change @ 12 mos, mean ± SD","[2]; Bucindolol Inter subgroup, n = 551",17.5 ± 216 pg/mL
same,Change in SBP @ 3 mos,[2]; Bucindolol Redxn subgroup,−0.7 ± 18.2 mm Hg
same,Change in SBP @ 12 mos,[2]; Bucindolol Redxn subgroup,2.7 ± 20.1 mm Hg
same,proportion of bucindolol-treated patients with marked norepinephrine reduction at 3 months,[2]; NE reduction ≧244.5 pg/ml,18%
same,average reduction in norepinephrine at 3 months (SEM),[2]; α2c DEL 322-325 carriers,153 ± 57 pg/mL
same,average reduction in norepinephrine at 3 months (SEM),[2]; α2c WT/WT patients,50 ± 13 pg/mL
same,"expected hazard ratio bucindolol vs. metoprolol CR/XL, mortality plus HF hospitalization","[3]; α2c WT/WT U.S. population, 0.72/0.84",0.86
same,"expected hazard ratio bucindolol:metoprolol CR/XL, mortality+HF hospitalizations","[3]; β1-389 Arg/Arg + α2c wild type vs MERIT U.S. data, 0.61/0.84",0.73
